Experimental data from BindingDB's records for doi:10.1074/jbc.M113.474114 (Glaxosmithkline, 2013).

target: T1, Tyrosine-protein kinase ITK/TSK [357-620,Y512E] (Human, UniProt Q08881, Y512E); assay: LanthaScreen Kinase Binding Assay
T1 construct: 357-620
From the text: This assay is based on the binding and displacement of Alexa-fluor 647-labeled ATP-competitive kinase inhibitor tracer 236. Binding of the tracer is detected using a europium-labeled anti-tag antibody that binds to the purified recombinant tagged Itk protein. Binding of the tracer 236 is reversible and rapid, and simultaneous binding of the tracer and antibody results in fluorescence resonance energy transfer (FRET). Displacement of the tracer upon inhibitor binding results in a decrease of FRET. The assay can be read continuously, enabling rates of binding (and displacement) to be monitored.

T1 sequence (Q08881 357-620 Y512E): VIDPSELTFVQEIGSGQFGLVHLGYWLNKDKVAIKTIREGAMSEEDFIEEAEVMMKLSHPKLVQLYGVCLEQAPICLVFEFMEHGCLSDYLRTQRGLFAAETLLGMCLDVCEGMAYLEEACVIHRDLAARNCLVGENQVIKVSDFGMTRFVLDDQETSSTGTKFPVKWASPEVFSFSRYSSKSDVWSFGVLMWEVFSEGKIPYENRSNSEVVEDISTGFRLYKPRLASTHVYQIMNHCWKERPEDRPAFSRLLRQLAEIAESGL

**Q.** `C=CC(=O)N1CC[C@H](Nc2cc(CN[C@@H](C)C(C)(C)C)cc(Nc3nc4cccnc4s3)n2)C1` was tested. Which IC50 did it give?
**A.** 5 nM

**Q.** How did the IC50 turn out when `C=CC(=O)N[C@H]1CCCC[C@H]1Nc1nc(CN2CCOCC2)cc(Nc2nc3cccnc3s2)n1` (relative stereo) [N-(cis-2-{[4-(4-Morpholinylmethyl)-6-([1,3]thiazolo[5,4-b]pyridin-2-ylamino)-2-pyrimidinyl]amino}cyclohexyl)-2-propenamide (4)] was run?
**A.** 320 nM

**Q.** How did the IC50 turn out when `C=CC(=O)N[C@H]1CCC[C@@H](Nc2nc(CN3CCOCC3)cc(Nc3nc4cccnc4s3)n2)C1` (relative stereo) [N-(cis-3-{[4-(4-Morpholinylmethyl)-6-([1,3]thiazolo[5,4-b]pyridin-2-ylamino)-2-pyrimidinyl]amino}cyclohexyl)-2-propenamide (6)] was run?
**A.** 250 nM

**Q.** With `C=CC(=O)N1CC[C@H](Nc2cc(CN[C@H](C)C(C)(C)C)cc(Nc3nc4cccnc4s3)n2)C1` [1-((S)-3-((4-((((R)-3,3-Dimethylbutan-2-yl)amino)methyl)-6-(thiazolo[5,4-b]pyridin-2-ylamino)pyridin-2-yl)amino)pyrrolidin-1-yl)prop-2-en-1-one (13)] as the compound, how does the IC50 read?
**A.** 7.9 nM

**Q.** `C=CC(=O)N1CC[C@H](Nc2cc(CN(C)C)cc(Nc3nc4cccnc4s3)n2)C1` [(S)-1-(3-((4-((Dimethylamino)methyl)-6-(thiazolo[5,4-b]pyridin-2-ylamino)pyridin-2-yl)amino)pyrrolidin-1-yl)prop-2-en-1-one (11)] was tested. Which IC50 did it give?
**A.** 32 nM

**Q.** For `C=CC(=O)N1CC[C@H](Nc2cc(CN3CCCCC3)cc(Nc3nc4cccnc4s3)n2)C1` [(S)-1-(3-((4-(Piperidin-1-ylmethyl)-6-(thiazolo[5,4-b]pyridin-2-ylamino)pyridin-2-yl)amino)pyrrolidin-1-yl)prop-2-en-1-one (10)], which IC50 is on record?
**A.** 6.3 nM

**Q.** Which IC50 does the source give for `O[C@H]1CC[C@H](Nc2nc(CN3CCOCC3)cc(Nc3nc4cccnc4s3)n2)CC1` [(trans)-4-((4-(Morpholinomethyl)-6-(thiazolo[5,4-b]pyridin-2-ylamino)pyrimidin-2-yl)amino)cyclohexanol (1)] here?
**A.** 100 nM

**Q.** How did the IC50 turn out when `C=CC(=O)N1CCC(Nc2nc(CN3CCOCC3)cc(Nc3nc4cccnc4s3)n2)CC1` [N2-(1-Acryloyl-4-piperidinyl)-6-(4-morpholinylmethyl)-N4-[1,3]thiazolo[5,4-b]pyridin-2-yl-2,4-pyrimidinediamine (3)] was run?
**A.** 320 nM

**Q.** Which IC50 does the source give for `C=CC(=O)N1CC[C@@H](Nc2nc(CN3CCOCC3)cc(Nc3nc4cccnc4s3)n2)C1` [N2-[(3R)-1-Acryloyl-3-pyrrolidinyl]-6-(4-morpholinylmethyl)-N4-[1,3]thiazolo[5,4-b]pyridin-2-yl-2,4-pyrimidinediamine (14)] here?
**A.** 20000 nM

**Q.** How did the IC50 turn out when `C=CC(=O)N1CC[C@H](Nc2nc(CN3CCOCC3)cc(Nc3nc4cccnc4s3)n2)C1` [N2-[(3S)-1-Acryloyl-3-pyrrolidinyl]-6-(4-morpholinylmethyl)-N4-[1,3]thiazolo[5,4-b]pyridin-2-yl-2,4-pyrimidinediamine (7)] was run?
**A.** 500 nM

**Q.** `C=CC(=O)NCCNc1nc(CN2CCOCC2)cc(Nc2nc3cccnc3s2)n1` [N-(2-{[4-(4-Morpholinylmethyl)-6-([1,3]thiazolo[5,4-b]pyridin-2-ylamino)-2-pyrimidinyl]amino}ethyl)-2-propenamide (2)] was tested. Which IC50 did it give?
**A.** 1300 nM

**Q.** With `C=CC(=O)N[C@H]1CC[C@H](Nc2nc(CN3CCOCC3)cc(Nc3nc4cccnc4s3)n2)CC1` [N-(trans-4-{[4-(4-Morpholinylmethyl)-6-([1,3]thiazolo[5,4-b]pyridin-2-ylamino)-2-pyrimidinyl]amino}cyclohexyl)-2-propenamide (5)] as the compound, how does the IC50 read?
**A.** 2000 nM

**Q.** Which IC50 does the source give for `C=CC(=O)N1CC[C@H](Nc2cc(CN3C[C@@H](C)O[C@@H](C)C3)cc(Nc3nc4cccnc4s3)n2)C1` [N-[(3S)-1-Acryloyl-3-pyrrolidinyl]-4-{[cis-2,6-dimethyl-4-morpholinyl]methyl}-N'-[1,3]thiazolo[5,4-b]pyridin-2-yl-2,6-pyridinediamine (9)] here?
**A.** 5 nM

**Q.** With `C/C=C/C(=O)N1CC[C@H](Nc2cc(CN3C[C@@H](C)O[C@@H](C)C3)cc(Nc3nc4cccnc4s3)n2)C1` [N-{(3S)-1-[(2E)-2-Butenoyl]-3-pyrrolidinyl}-4-{[cis-2,6-dimethyl-4-morpholinyl]methyl}-N'-[1,3]thiazolo[5,4-b]pyridin-2-yl-2,6-pyridinediamine (16)] as the compound, how does the IC50 read?
**A.** 40 nM
